Where a name gives a salt, the structure may show the parent alone.
Assays:
Format in all cases: biochemical
human ME3 enzyme = target: T1, human ME3 enzyme (Homo sapiens, UniProt Q16798); assay: ME3 inhibition assay (diaphorase/resazurin coupled fluorescence); settings: 10 μM compound concentration; read-out: Malic Enzyme 3 % inhibition (10 μM)
T1 sequence (Q16798 1-604): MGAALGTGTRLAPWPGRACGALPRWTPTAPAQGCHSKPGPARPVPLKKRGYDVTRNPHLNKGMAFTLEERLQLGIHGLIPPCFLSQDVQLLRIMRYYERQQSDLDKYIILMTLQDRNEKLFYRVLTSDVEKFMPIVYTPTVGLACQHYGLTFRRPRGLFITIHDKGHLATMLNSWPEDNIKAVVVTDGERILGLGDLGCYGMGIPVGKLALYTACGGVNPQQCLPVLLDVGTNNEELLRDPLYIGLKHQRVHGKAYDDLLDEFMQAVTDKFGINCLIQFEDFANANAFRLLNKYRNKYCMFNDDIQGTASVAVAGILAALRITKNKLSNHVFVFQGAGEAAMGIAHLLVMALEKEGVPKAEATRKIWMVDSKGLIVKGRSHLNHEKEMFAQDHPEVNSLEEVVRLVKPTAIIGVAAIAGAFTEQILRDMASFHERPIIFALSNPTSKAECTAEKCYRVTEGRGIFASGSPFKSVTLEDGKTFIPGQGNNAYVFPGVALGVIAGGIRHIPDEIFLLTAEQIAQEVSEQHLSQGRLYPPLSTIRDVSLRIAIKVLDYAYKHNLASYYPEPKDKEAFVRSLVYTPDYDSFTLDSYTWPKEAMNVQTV
Protocol: ME3 catalyzes the oxidative decarboxylation of malate to pyruvate with conversion of the co-factor β-NADP+ to NADPH. In the fluorescence assay, a coupled reaction is set up wherein an enzyme, Diaphorase, utilizes NADPH generated by ME3, to convert the dye resazurin to a fluorescent molecule resorufin.
The enzyme activity inhibition assay is set up in a 200 μL final reaction volume in a 96-well plate. As per the experimental design, 2 μL of the test compounds at 100× the desired concentration (10 μM) in DMSO were added to the respective wells with 178 μL of assay buffer (50 mM Tris-HCl pH 7.5, 10 mM MnCl2, 3 mM L-malate, 50 μM Resazurin and 0.025 mg/ml Diapharose). The 96-well plate was incubated on a plate shaker at room temperature for 15 minutes protected from light. The well contents were gently mixed by adding 10 μL of 20 nM human ME3 enzyme to the wells and the plate was incubated on a shaker at room temperature for 5 minutes protected from light. Suitable enzyme only and no enzyme controls were included in the experiment. The enzyme reaction was started by adding 10 μL of 1 mM D-NADP+. The reaction was gently mixed and the plate was initially left on a shaker at room temperature for ˜7 minutes protected from light. Later, the plate was incubated without shaking at room temperature for 3 hours. At the end of 3 hours, the fluorescence of the wells was measured at excitation 540 nm and emission 600 nm.

human ME2 enzyme = human ME2 enzyme (Homo sapiens, UniProt P23368); assay: ME2 inhibition assay (diaphorase/resazurin coupled fluorescence); settings: 10 μM compound concentration; read-out: Malic Enzyme 2 % inhibition (10 μM)
Protocol: (§1) ME2 catalyzes the oxidative decarboxylation of malate to pyruvate with conversion of the co-factor β-NAD+ to β-NADH. In the fluorescence assay, a coupled reaction is set up where in an enzyme, Diaphorase, utilizes NADH generated by ME2, to convert the dye resazurin to a fluorescent molecule resorufin. Resorufin has a characteristic fluorescence with excitation/emission at 540/600 nm (SLAS Discov., 2017 April 1:2472555217706649).
The enzyme activity inhibition assay is set up in a 200 μL final reaction volume in a 96-well plate. As per the experimental design, 2 μL of the compounds at 100× the desired concentration (10 μM) in DMSO were added to the respective wells with 178 μL of assay buffer (50 mM Tris-HCl pH 7.5, 10 mM MnCl2, 7 mM L-malate, 50 μM Resazurin and 0.025 mg/ml Diapharose). The 96-well plate was incubated on a plate shaker at room temperature for 15 minutes protected from light. The well contents were gently mixed by adding 10 μL of 60 nM human ME2 enzyme to the wells and the plate was incubated on a shaker at room temperature for 5 minutes protected from light. Suitable ‘enzyme only’ and ‘no enzyme’ controls were included in the experiment. The enzymatic reaction was started by adding 10 μL of 2 mM β-NAD+. The reaction was gently mixed and the plate was initially left on a shaker at room temperature for −7 minutes protected from light. Later, the plate was incubated without shaking at room temperature for 2 hours. At the end of 2 hours, the fluorescence of the wells was measured at excitation 540 nm and emission 600 nm. The % enzyme activity of the compounds is obtained by normalizing the data with enzyme only (100%) and no enzyme controls (0%) using GraphPad Prism software 7.04.

human ME1 enzyme = target: T2, human ME1 enzyme (Homo sapiens, UniProt P48163); assay: ME1 inhibition assay (diaphorase/resazurin coupled fluorescence); settings: 10 μM compound concentration; read-out: Malic Enzyme 1 % inhibition (10 μM)
T2 sequence (P48163 1-572): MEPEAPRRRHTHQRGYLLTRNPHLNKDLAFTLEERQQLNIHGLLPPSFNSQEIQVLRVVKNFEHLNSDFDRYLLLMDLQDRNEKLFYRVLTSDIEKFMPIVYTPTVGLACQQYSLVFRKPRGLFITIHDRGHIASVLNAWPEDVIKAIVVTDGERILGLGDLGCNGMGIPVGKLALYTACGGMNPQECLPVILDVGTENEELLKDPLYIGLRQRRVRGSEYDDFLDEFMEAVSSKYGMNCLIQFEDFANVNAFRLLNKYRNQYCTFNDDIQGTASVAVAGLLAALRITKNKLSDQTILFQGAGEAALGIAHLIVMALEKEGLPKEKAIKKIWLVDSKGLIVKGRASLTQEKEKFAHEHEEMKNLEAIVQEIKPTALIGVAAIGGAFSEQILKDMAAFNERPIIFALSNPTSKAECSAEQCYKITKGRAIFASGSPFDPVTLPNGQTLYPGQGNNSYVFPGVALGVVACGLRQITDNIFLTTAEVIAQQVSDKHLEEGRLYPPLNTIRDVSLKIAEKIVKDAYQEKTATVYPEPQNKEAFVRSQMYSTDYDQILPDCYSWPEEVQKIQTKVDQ
Protocol: as §1, with “ME1” for “ME2”, “β-NADP+” for “β-NAD+”, “β-NADPH.” for “β-NADH.”, “NADPH” for “NADH”, “ME1,” for “ME2,”
The enzyme activity inhibition assay is set up in a 200 μL final reaction volume in a 96-well plate. As per the experimental design, 2 μL of the compounds at 100× the desired concentration (10 μM) in DMSO were added to the respective wells with 178 μL of assay buffer (50 mM Tris-HCl pH 7.5, 10 mM MnCl2, 2 mM L-malate, 10 μM Resazurin and 0.01 mg/ml Diapharose). The 96-well plate was incubated on a plate shaker at room temperature for 15 minutes protected from light. The well contents were gently mixed by adding 10 μL of 20 nM human ME1 enzyme to the wells and the plate was incubated on a shaker at room temperature for 5 minutes protected from light. Suitable ‘enzyme only’ and ‘no enzyme’ controls were included in the experiment. The enzymatic reaction was started by adding 10 μL of 0.3 mM D-NADP+. The reaction was gently mixed and the plate was initially left on a shaker at room temperature for −7 minutes protected from light. Later, the plate was incubated without shaking at room temperature for 2 hours. At the end of 2 hours, the fluorescence of the wells was measured at excitation 540 nm and emission 600 nm. The % enzyme activity of the compounds is obtained by normalizing the data with enzyme only (100%) and no enzyme controls (0%) using GraphPad Prism software 7.04.

human ME2 enzyme, sequence (P23368 19-584): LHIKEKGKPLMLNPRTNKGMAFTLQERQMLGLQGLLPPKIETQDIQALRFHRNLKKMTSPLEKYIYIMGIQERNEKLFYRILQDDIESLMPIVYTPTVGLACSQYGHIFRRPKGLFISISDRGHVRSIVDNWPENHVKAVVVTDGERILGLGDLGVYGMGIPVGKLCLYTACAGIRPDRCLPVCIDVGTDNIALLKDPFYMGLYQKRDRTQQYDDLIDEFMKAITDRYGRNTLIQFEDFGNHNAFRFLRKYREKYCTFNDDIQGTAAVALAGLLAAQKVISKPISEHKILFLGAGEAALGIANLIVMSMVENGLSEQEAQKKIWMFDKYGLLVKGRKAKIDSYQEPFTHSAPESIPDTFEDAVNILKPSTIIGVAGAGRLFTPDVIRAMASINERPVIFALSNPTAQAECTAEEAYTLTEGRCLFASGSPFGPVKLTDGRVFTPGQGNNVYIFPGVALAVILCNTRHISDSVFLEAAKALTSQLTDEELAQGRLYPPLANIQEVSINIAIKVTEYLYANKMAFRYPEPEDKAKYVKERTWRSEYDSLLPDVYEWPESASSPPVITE

Row | SMILES | inhibition at 10 µM (human ME3 enzyme) [%] | inhibition at 10 µM (human ME2 enzyme) [%] | inhibition at 10 µM (human ME1 enzyme) [%]
1 | Cc1[nH]c2ccccc2c1CC(=O)N1CCN(c2ccc(O)cn2)CC1 [I.127, 1-[4-(5-Hydroxy-pyridin-2-yl)-piperazin-1-yl]-2-(2-methyl-1H-indol-3-yl)-ethanone] | > 90 | > 90 | > 90
2 | O=C(c1c[nH]c2ccc(F)cc12)N1CCN(c2ccc(O)cc2)CC1 [I.156, (5-Fluoro-1H-indol-3-yl)-[4-(4-hydroxy-phenyl)-piperazin-1-yl]-methanone] | > 90 | > 90 | > 90
3 | Cn1cc(CC(=O)N2CCN(c3ccc(O)cn3)CC2)c2cc(F)ccc21 [I.165, 2-(5-Fluoro-1-methyl-indol-3-yl)-1-[4-(5-hydroxy-pyridin-2-yl)-piperazin-1-yl]-ethanone] | > 90 | > 90 | > 90
4 | O=C(C=C(c1ccccc1)c1ccccc1)N1CCN(c2ccc(O)cc2)CC1 [I.40, 1-[4-(4-hydroxyphenyl)piperazin-1-yl]-3,3-diphenylprop-2-en-1-one] | > 90 | > 90 | > 90
5 | O=C(CC1CC1)N1CCN(c2ccc(O)cn2)CC1 [I.137, 2-Cyclo-propyl-1-[4-(5-hydroxy-2-pyridyl)-piperazin-1-yl]ethanone] | > 90 | > 90 | > 90
6 | Cn1cc(C(=O)N2CCN(c3ccc(O)cn3)CC2)c2ccccc21 [I.71, [4-(5-Hydroxy-pyridin-2-yl)-piperazin-1-yl]-(1-methyl-1H-indol-3-yl)-methanone] | > 90 | 70 to 89 | > 90
7 | O=C(Cc1c[nH]c2ccc(Cl)cc12)N1CCN(c2ccc(O)cn2)CC1 [I.159, 2-(5-Chloro-1H-indol-3-yl)-1-[4-(5-hydroxy-pyridin-2-yl)-piperazin-1-yl]-ethanone] | > 90 | > 90 | > 90
8 | O=C(CCc1cccc2ccccc12)N1CCN(c2ccc(O)cc2)CC1 [I.46, 1-[4-(4-Hydroxy-phenyl)-piperazin-1-yl]-3-naphthalen-1-yl-propan-1-one] | > 90 | > 90 | > 90
9 | CC(C)(Sc1ccccc1Br)C(=O)N1CCN(c2ccc(O)cn2)CC1 [I.162, 2-(2-Bromo-phenyl-sulfanyl)-1-[4-(5-hydroxy-pyridin-2-yl)-piperazin-1-yl]-2-methyl-propan-1-one] | > 90 | > 90 | > 90
10 | O=C(C(O)Cc1ccccc1)N1CCN(c2ccc(O)cn2)CC1 (stereo not drawn) [I.144, 2-Hydroxy-1-[4-(5-hydroxy-pyridin-2-yl)-piperazin-1-yl]-3-phenyl-propan-1-one] | > 90 | > 90 | 50 to 69
11 | O=C(CCCCc1ccccc1)N1CCN(c2ccc(O)cn2)CC1 [I.68, 1-[4-(5-Hydroxy-pyridin-2-yl)-piperazin-1-yl]-5-phenylpentan-1-one hydrochloride] | > 90 | 70 to 89 | > 90
12 | O=C(CCn1cnc2ccccc21)N1CCN(c2ccc(O)cn2)CC1 [I.136, 3-Benzo-imidazol-1-yl-1-[4-(5-hydroxy-pyridin-2-yl)-piperazin-1-yl]-propan-1-one] | > 90 | > 90 | 70 to 89
13 | O=C(c1c[nH]c2ncccc12)N1CCN(c2ccc(O)cn2)CC1 [I.63, [4-(5-Hydroxy-pyridin-2-yl)-piperazin-1-yl]-(1H-pyrrolo[2,3-b]pyridin-3-yl)-methanone] | > 90 | 70 to 89 | 70 to 89
14 | N#Cc1ccc(CCC(=O)N2CCN(c3ccc(O)cn3)CC2)cc1 [I.138, 3-(4-Cyano-phenyl)-1-[4-(5-hydroxy-pyridin-2-yl)-piperazin-1-yl]-propan-1-one] | > 90 | > 90 | > 90
15 | Cc1[nH]c2ccc(Cl)cc2c1CC(=O)N1CCN(c2ccc(O)cn2)CC1 [I.175, 2-(5-Chloro-2-methyl-1H-indol-3-yl)-1-[4-(5-hydroxy-pyridin-2-yl)-piperazin-1-yl]-ethanone] | > 90 | > 90 | > 90
16 | COCCOc1ccc(CC(=O)N2CCN(c3ccc(O)cc3)CC2)cc1 [I.5, 1-[4-(4-Hydroxy-phenyl)-piperazin-1-yl]-2-[4-(2-methoxy-ethoxy)-phenyl]-ethanone] | > 90 | > 90 | > 90

— patent publication US11225480B2, “Malic enzyme inhibitors” (SUN PHARMA ADVANCED RESEARCH COMPANY LTD, priority 2019, dated 2022)
